{
  "source": "patent CN115177586A",
  "about": "“一种卡泊三醇组合物” (Jiangsu Zhiyuan Pharmaceutical Co ltd, priority 2022, dated 2022)",
  "origin": "cited, not measured here",
  "conditions": "not told",
  "data": [
    {"smiles": "C=C1/C(=C\\C=C2/CCC[C@]3(C)[C@@H]([C@H](C)/C=C/[C@@H](O)C4CC4)CC[C@@H]23)C[C@@H](O)C[C@@H]1O", "note": "[卡泊三醇]", "values": [
      {"measurement": "permeability", "result": "渗透性极差"}
    ]}
  ]
}
